For one experiment, the system named is H2009 cells. Nature of the experiment: H2009 cells ectopically expressing RIP3, TSZ-induced necroptosis. The settings on record: H2009 with ectopic RIP3. Format: cell-based, human. Here is the method:
HEK293T, HT-29, H2009, L929, HeLa, and MEF cells were grown in Dulbecco’s Modified Eagle’s Medium (DMEM) supplemented with 10% fetal bovine serum (FBS). RAW264.7 cells were grown in Roswell Park Memorial Institute (RPMI) 1640 media supplemented with 10% FBS. To generate cell lines stably expressing the RIP3 construct, HeLa and H2009 cells were infected with pLX303-hRIP3 lentivirus.
(§1) Cells were pretreated with DAB or HS-1371 for 2 h and then treated with TSZ (6 h for immunoblotting, 24 h for cell death assay). Cell lysates were analyzed by immunoblotting (left bottom panel), and cell viability was analyzed by MTT assay (right panel). The results are presented as means ± SEM. *P < 0.05, **P < 0.01, ***P < 0.001. c, d HS-1371 had the same effect on mouse cells. L929 (mouse sarcoma, c) and MEF (mouse embryonic fibroblast, d) cells were pretreated with inhibitors and then necroptosis was induced by TNF. Cell lysates were analyzed by immunoblotting (upper panel), and cell viability was analyzed by MTT assay (bottom panel). The results are presented as means ± SEM. *P < 0.05, **P < 0.01, ***P < 0.001

Experiment [1] relates to mouse embryonic fibroblast (MEF) cells. Nature of the experiment: TCZ-induced necroptosis in MEF cells. The experiment is classed as cell-based. Particulars: TNF plus cycloheximide and zVAD (TCZ). As for the experimental part: as §1
A further experiment has as its system NF-κB pathway. Nature of the experiment: TNF- or LPS-induced NF-κB signaling (immunoblot). The experiment is classed as cell-based. Here is the method:
Supplementary Figure 1. Identification of HS-1371 as a novel RIP3 kinase inhibitor.
Detailed interaction patterns in the region surrounded by DFG motif and αC helix of RIP3.
Hydrogen bonds are indicated with dotted lines.
Supplementary Figure 2. The effect of HS-1371 was compared with GSK’872.
(a) Overexpression of RIP3 could induce S227 phosphorylation without stimuli. HEK293T cells were transiently transfected with Flag-hRIP3, and cells were treated with or without DAB for incubation periods. After cells were harvested, cell lysates were analyzed by […]
kinase inhibitor. HT-29 cells were treated with HS -1371 or GSK’872 indicated concentrations for 9 h, and cell lysates were analyzed by immunoblotting.
(c) Cytotoxicity of HS-1371 was compared with GSK’872. HT-29 cells were treated with 2 kinase inhibitors for 24 h and cell viability was analyzed by MTT assay.
(d) Inhibition of MLKL phosphorylation by HS-1371 was compared with other two RIP3 kinases inhibitors, DAB (5 μM) and GSK’872 (5 μM). […] Cell lysates were analyzed by […]
HeLa, L929, and MEF cells were pretreated with HS-1371 (5 μM) for 2 h, and treated with TNF (30 ng/mL) for indicated time points. Cell lysates were analyzed by immunoblotting. […]
(a) RAW264.7 cells were treated with LPS (1 μg/mL) for indicated time points and cell lysates were analyzed by immunoblotting. […]

Another experiment concerns the target RIP3 (Homo sapiens, UniProt Q9Y572). Nature of the experiment: Radiometric kinase assay of RIP3 (Reaction Biology). Format: biochemical. The settings on record: 10 μM ATP, 20 μM MBP substrate; read-out: IC50 against RIP3. More on the design: purchased Reaction Biology Corp (Malvern, PA, USA). As for the experimental part:
The inhibitory activities of all compounds toward RIP3 were measured by Reaction Biology Corp (Malvern, PA, USA) by means of radiometric kinase assays ([…]). The enzymatic activity of RIP3 was monitored using 20 μM of myelin basic protein (MBP) dissolved in freshly prepared reaction buffer (20 mM HEPES (pH 7.5), 10 mM MgCl2, 1 mM EGTA, 0.02% BRIJ-35, 0.02 mg/mL BSA, 0.1 mM Na3VO4, 2 mM DTT, 1% DMSO). Each putative RIP3 inhibitor was dissolved in 100% DMSO at specific concentrations and serially diluted with epMotion 5070 in DMSO. Human RIP3 and 20 μM of peptide substrate (MBP) were added to the reaction buffer. After delivering the candidate inhibitor dissolved in DMSO to the kinase reaction mixture using Acoustic technology (Echo550; nanoliter range), the reaction mixture was incubated for 20 min at room temperature. To initiate the enzymatic reaction, ^33P-ATP with specific activity of 10 μCi/μL was added to the reaction mixture to reach a final ATP concentration of 10 μM. Radioactivity was then monitored using the filter binding method after incubation of the reaction mixture for 2 h at room temperature. At given concentrations of inhibitor, biochemical potency was measured by the percent remaining kinase activity with respect to the vehicle (dimethyl sulfoxide) reaction. Curve fits and IC50 values were then obtained using the PRISM program (GraphPad Software). […]

Sequence of RIP3 (Q9Y572 whole entry): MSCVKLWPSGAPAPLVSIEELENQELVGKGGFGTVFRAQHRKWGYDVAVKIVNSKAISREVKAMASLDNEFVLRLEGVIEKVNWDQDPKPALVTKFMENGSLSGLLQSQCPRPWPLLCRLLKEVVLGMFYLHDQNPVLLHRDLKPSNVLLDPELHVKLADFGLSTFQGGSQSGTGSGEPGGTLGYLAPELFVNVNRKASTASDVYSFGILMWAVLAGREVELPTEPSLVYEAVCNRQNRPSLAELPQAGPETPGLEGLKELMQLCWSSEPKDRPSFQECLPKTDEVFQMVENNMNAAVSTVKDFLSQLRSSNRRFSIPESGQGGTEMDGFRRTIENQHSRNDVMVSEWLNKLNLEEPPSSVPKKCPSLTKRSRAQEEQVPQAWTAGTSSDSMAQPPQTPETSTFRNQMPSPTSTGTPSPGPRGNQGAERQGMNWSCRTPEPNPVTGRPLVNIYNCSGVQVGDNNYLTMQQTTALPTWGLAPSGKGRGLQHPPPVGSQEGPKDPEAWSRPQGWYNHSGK

Turning to `Cc1ccc(Oc2ccnc3cc(-c4cnn(C5CCNCC5)c4)ccc23)cc1` [HS-1371, 7-(1-(Piperidin-4-yl)-1H-pyrazol-4-yl)-4-(p-tolyloxy)quinoline], the TSZ-induced necroptosis entry with H2009 cells is “prevented”. The “MLKL phosphorylation and cell death” value in experiment [1] is given as “effectively prevented”. Further, in the experiment with NF-κB pathway (HT-29, HeLa(RIP3), L929, MEF, 5 μM pretreated 2 h, TNF 30 ng/mL), the “TNF-induced NF-κB signaling” value was “did not affect”. For the same compound, the “LPS-induced induction of the NF-κB pathway” value in the experiment with NF-κB pathway (data not shown) is listed as “not altered”. For the same compound, at RIP3, the IC50 was found to be 20.8 nM.

(Values after paper PMC6148246, “HS-1371, a novel kinase inhibitor of RIP3-mediated necroptosis” (Experimental & Molecular Medicine, 2018).)
